Measured values: patent US12674178B2, “Methods for the evaluation of neutralizing antibodies for adeno-associated virus” (REGENTS OF THE UNIVERSITY OF MINNESOTA, priority 2020, dated 2026)

How the values were obtained:
AAV8 = assay: AAV8-Luc infection of HEK293 cells, luciferase readout; assay type: cell-based, adeno-associated virus; settings: at least one model system, cells pretreated
Experimental: (§1) HEK293 cells were infected with AAV8-Luciferase (Luc) or AAV2-Luc at an MOI of 5000 in the presence of several pharmacologically active drugs (TNFα+LPS, TNFα+IL-6, dorsomorphin (also known as “Compound C” or “CC”), SP600125, or rosiglitazone). The drugs were added 1 hour before injection with AAV-Luc. 24 hours after AAV-Luc was added, luciferase was detected, as further described in Example 2.
Method: Day 0: • 1. Remove culture medium (DMEM supplemented with 10% heat-inactivated FBS and 1% penicillin/streptomycin) from HEK293 cell culture, gently wash cells twice with 100 μL of PBS. Cells should be at low passage and approximately 80% confluent without being overgrown. Harvest cells by trypsinization and perform a cell count. • 2. Resuspend cells in complete DMEM culture medium at 200,000 cells/mL. Seed cells in 96-well plates with black or white walls and clear bottoms: 20,000 cells/well in 100 μL of complete media. • 3. Incubate cells overnight in C02 incubator at 37° C. Day 1: • 1. […] Each dilution was analyzed at least in triplicate. […] Set up spectrophotometer to read chemiluminescence. If the spectrophotometer is BioTek the read conditions are: 500 ms, gain 125-135, height of plate 3.75 mm. Add 50 μL of Bright Glo substrate to each well, incubate plate 3 min in the dark and then read. For maximal light intensity, samples should be measured within 15 minutes of reagent addition. […]

AAV2 = assay: AAV2-Luc infection of HEK293 cells, luciferase readout; assay type: cell-based, adeno-associated virus; settings: AAV2, CC pre-treatment, 48 hours, MOI 2000
Experimental: as §1
Method: Day 0: • 1. Remove culture medium (DMEM supplemented with 10% heat-inactivated FBS and 1% penicillin/streptomycin) from HEK293 cell culture, gently wash cells twice with 100 μL of PBS. Cells should be at low passage and approximately 80% confluent without being overgrown. Harvest cells by trypsinization and perform a cell count. • 2. […] Each dilution was analyzed at least in triplicate. […] Set up spectrophotometer to read chemiluminescence. If the spectrophotometer is BioTek the read conditions are: 500 ms, gain 125-135, height of plate 3.75 mm. Add 50 μL of Bright Glo substrate to each well, incubate plate 3 min in the dark and then read. For maximal light intensity, samples should be measured within 15 minutes of reagent addition.
(§2) The dramatic improvement of AAV8 transduction in vitro in the presence of CC prompted test to determine if similar effect could be achieved for other AAV serotypes. The transduction efficiency of ten common AAV serotypes at MOI 2000 vg/cell was analyzed. […]

AAV10 = assay: AAV10/Luc infection of HEK293 cells, luciferase readout; assay type: cell-based, adeno-associated virus; settings: AAV10, CC pre-treatment, MOI 2000
Experimental: Method: Day 0: • 1. Remove culture medium (DMEM supplemented with 10% heat-inactivated FBS and 1% penicillin/streptomycin) from HEK293 cell culture, gently wash cells twice with 100 μL of PBS. Cells should be at low passage and approximately 80% confluent without being overgrown. Harvest cells by trypsinization and perform a cell count. • 2. Resuspend cells in complete DMEM culture medium at 200,000 cells/mL. Seed cells in 96-well plates with black or white walls and clear bottoms: 20,000 cells/well in 100 μL of complete media. • 3. Incubate cells overnight in C02 incubator at 37° C. Day 1: • 1. Confirm microscopically that cells are 50-80% confluent. • 2. […] Each dilution was analyzed at least in triplicate. […] Set up spectrophotometer to read chemiluminescence. If the spectrophotometer is BioTek the read conditions are: 500 ms, gain 125-135, height of plate 3.75 mm. Add 50 μL of Bright Glo substrate to each well, incubate plate 3 min in the dark and then read. For maximal light intensity, samples should be measured within 15 minutes of reagent addition.
as §2

HEK293 cells = assay: Cytotoxicity of the drug to the cells to be infected; assay type: cell-based

Structure (SMILES): c1cc(-c2cnn3cc(-c4ccc(OCCN5CCCCC5)cc4)cnc23)ccn1 [dorsomorphin]
- CC pretreatment concentration giving statistically significant increase in activity of AAV/Luc (AAV8): at least 2.5 μM
- luciferase activity, times higher than background (AAV2): more than 1000 times
- luciferase activity, times higher than background (AAV10): 8 times
- cytotoxic effects (HEK293 cells; HEK293 infected with AAV2/AAV8): without cytotoxic effects
- CC concentration that became toxic to cells (HEK293 cells; at least one model system): higher than 20 μM
